Source: patent US8198302B2 (OXiGENE, Inc., priority 2004, dated 2012)

Key:
[1] = target: T1, Horseradish peroxidase (HRP) (Armoracia rusticana, UniProt P00433); assay: Peroxidase-mediated activation of catechols (HPLC loss of peak area); assay type: biochemical; conditions: for Relative Activation (% Control): relative to non-catechol control = 100; for Slope/Hrp: slope divided by HRP concentration (ug/ml): corrected disappearance
T1 construct: purchased Sigma P6782
T1 sequence (P00433 31-338 limits assumed): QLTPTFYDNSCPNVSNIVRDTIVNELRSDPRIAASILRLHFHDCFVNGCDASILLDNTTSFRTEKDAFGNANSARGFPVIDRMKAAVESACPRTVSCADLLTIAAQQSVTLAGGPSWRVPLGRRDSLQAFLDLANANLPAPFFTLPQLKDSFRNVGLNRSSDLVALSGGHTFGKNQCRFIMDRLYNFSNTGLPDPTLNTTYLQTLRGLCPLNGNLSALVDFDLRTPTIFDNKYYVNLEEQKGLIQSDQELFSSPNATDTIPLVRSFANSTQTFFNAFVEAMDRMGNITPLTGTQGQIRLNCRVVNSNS
Method: Methods: catechols were dissolved in DMSO immediately prior to assay (10 mM). HRP (Sigma, P6782, 1000 units/mg), was dissolved in phosphate buffered saline (PBS) at a concentration of 40 ug/ml. Fresh hydrogen peroxide (50 mM) was prepared from a 30% w/w solution (Sigma, H1009). Incubations were carried out in a water bath maintained at 37° C. Exact volumes varied depending on the catechol, but typically they comprised 1.92 ml PBS, 20 μl DMSO, 20 μl hydrogen peroxide and 20 μl drug in a 4 ml amber glass vial. Prior to addition of the drug, the vial was pre-incubated for 10 min. The reaction was initiated by the addition of 20 μl HRP. Samples (100 μl) were then removed at intervals, added to 100 μl acetonitrile and placed on ice. At the end of the incubation, samples were centrifuged (12000 g, 1 min) to remove precipitated protein and the supernatants placed in polypropylene hplc vials for analysis. Control incubations containing no HRP were carried out in the same way.
HPLC was performed using a Waters 2695 Separations Module with a sample compartment maintained at 10° C., and a Waters 2996 Photodiode Array Detector. The column was an ACE C18, 3 μm particle size, 125×3 mm (Hichrom) maintained at 30° C. Compounds were eluted with varying proportions of A: 5 mM KH2PO4, 5 mM H3PO4, and B: 75% acetonitrile, 25% water at a flow rate of […], in order to achieve a similar starting peak area for each catechol. Occasionally, in order to achieve a better resolution of the products, the latter was replaced with 100% methanol. Spectral data was collected from 220 nm to 500 nm, sampling rate 2/sec, 1.2 nm resolution. Data was analysed using Waters Millennium software.
Results: The loss of peak area at 300 nm of the prodrug was plotted against time, and a straight line fitted to the data. Loss of peak area was used to approximate the relative rates of loss of each catechol. The slope of the line-of-best-fit was then divided by the HRP concentration to give a corrected disappearance (see Table 3).

[2] = test system: tumor cells; assay: Tumor cell cytotoxicity, MTT assay; assay type: cell-based; conditions: tumor cells treated for 24 hours
Method: Exponentially growing tumor cells were treated with the following compounds for 24 hours. Insoluble compounds were formulated in a small amount (0.3%) of DMSO for biological evaluation. Cell viability was determined by the calorimetric MTT assay using 3(4,5-dimethylthiazol-2-yl)-2,5-diphenyl-2H-tetrazolium bromide according to well-established procedures (see Berridge, et al. (1996) for a general protocol of this type of assay).

[3] = test system: MHEC-5T tumors; assay: Reduction in tumor blood flow / functional tumor vessels (fluorescent beads); assay type: in vivo, mice; conditions: for Blood Flow at 10 mg/kg (% vessel area of control): MHEC-5T tumor-bearing SCID mice, 24 hours after dosing
Method: (§1) Catechols were dissolved in 50% DMSO (2 mg/kg) prior to intravenous (iv) administration (i.v.) to tumor-bearing mice. MHEC-5T tumors were established by subcutaneous injection of 0.5×10^6 cultured MHEC5-T cells (German Collection of Microorganisms and Cell Culture, Braunschweig, Germany) into the right flank of Fox Chase CB-17 severe combined immunodeficient (SCID) mice. Tumor grafts grew palpable within one week and reached the limited size (15×15 mm) within 10 days. Tumor bearing mice were injected intraperitoneally with saline control or various dosages of CA1P or CA4P after the transplanted tumor reached a size of 300 mm^3 (a size without development of necrosis). Twenty-four hours later they were injected with 0.25 ml of fluorescent FluoSphere beads (0.1 μm beads conjugated with blue fluorescent tag (F-8789, Molecular Probes, Eugene, Oreg.) and diluted 1:6 in physiological saline) in the tail vein, and sacrificed after 3 minutes. Tumors were then excised for cryosections. Cryosections of 8 μm thickness were directly examined under a fluorescent microscope. Functional blood vessels were indicated by blue fluorescence from injected microbeads. For quantification, three sections from three tumors treated in each group were examined and in each section, more than 70% of the area was automatically recorded with a microscopic digital camera at ×10 magnification. A computer program named Stage Pro (Media Cybernetics, Md.) was used to control the picture recording. Image analysis was performed with Image Plus software (Media Cybernetics, Md.). The results were expressed as vessel area per mm^2 in percentage of the control in Table 2.
as §1, with “The effect of CA1P on tumor blood flow was evaluated by quantifying the number of functional tumor vessels” for “Catechols were dissolved”, “treated murine tumors.” for “50% DMSO (2 mg/kg) prior to intravenous (iv) administration (i.v.) to tumor-bearing mice.”, “as in Example 4c.” for “by subcutaneous injection of 0.5×10^6 cultured MHEC5-T cells (German Collection of Microorganisms and Cell Culture, Braunschweig, Germany) into the right flank of Fox Chase CB-17 severe combined immunodeficient (SCID) mice. Tumor grafts grew palpable within one week and reached the limited size (15×15 mm) within 10 days.”, “MD)” for “Md.)”, “MD).” for “Md.).”, “control.” for “control in Table 2.”

[4] = test system: murine adenocarcinoma CaNT; assay: Tumor growth control in CaNT murine tumor model; assay type: in vivo, mice; conditions: single doses of 100, 200, and 400 mg/kg i.p., FIG. 5
Method: The murine adenocarcinoma CaNT was grown subcutaneously on the back of 12- to 16-week old CBA/Gy fTO mice. Tumors were initiated by the injection of 0.05 ml of a crude tumor cell suspension prepared from a donor mouse. Animals were selected for treatment after 3 or 4 weeks, when tumors had reached a geometric mean diameter of 5 to 6.5 mm. CA1P and CA4P were dissolved in 0.9% saline at various concentrations and injected intraperitoneally into tumor bearing mice. Each treatment group consisted of between five and nine mice. A control treatment group was injected with 0.9% saline.

[5] = test system: murine adenocarcinoma CaNT; assay: Functional vascular volume of tumor vessels (Hoechst 333342); assay type: in vivo, mice
Method: The effect of CA1P on tumor blood flow was evaluated by quantification of the functional volume of tumor vessels in treated murine tumors using a procedure previously described in detail and incorporated by reference herein (Smith K A, Br. J. Cancer, 57:247-253, 1988). The murine adenocarcinoma CaNT was grown subcutaneously on the back of 12- to 16-week old CBA/Gy fTO mice. Tumors were initiated by the injection of 0.05 ml of a crude tumor cell suspension prepared from a donor mouse. Animals were selected for treatment after 3 or 4 weeks, when tumors had reached a geometric mean diameter of 5 to 6.5 mm. CA1P and CA4P were dissolved in 0.9% saline at various concentrations and injected intraperitoneally into tumor bearing mice. Each treatment group consisted of between five and nine mice. A control treatment group was injected with 0.9% saline. At 24 hours post-injection, each mouse was injected intravenously with a 10 mg/kg dose of the fluorescent DNA-binding dye Hoechst 333342 and sacrificed 1 minute later. Tumors were immediately excised and bisected. Frozen tumor sections were cut at three levels and viewed under UV excitation where the fluorescent staining of perivascular cells identified perfused vessels. Vascular volumes were quantified based on a random point scoring system previously described and incorporated by reference herein (Chalkley H W, J. Natl Cancer Institute, 4: 47-53, 1943). All estimates were based on counting 100 fields from sections cut at each of the 3 different levels and the calculated vascular volumes were expressed as a percentage of the mean value for control tumors.

[6] = test system: tubulin; conditions: cited from earlier work
[7] = cited from earlier work
[8] = test system: Purified tubulin; assay: Inhibition of tubulin polymerization (turbidimetric, 350 nm); assay type: biochemical; conditions: purified tubulin 1 mg/ml, read-out: Tubulin Binding (uM IC50)
Method: The method of Verdier-Pinard (1998, Molec. Pharmacol. 53, 62-76) was used to assay catechol compounds for inhibition of tubulin polymerization. Tubulin polymerization was followed turbidimetrically at 350 nm on an Agilent 8453 spectrophotometer equipped with a kinetics program, a jacketed cell holder, and two microprocessor-controlled water baths. Purified tubulin (1 mg/ml) was induced to polymerize in a monosodium glutamate/GTP solution by a jump in temperature. Absorbance was recorded every 10 seconds and the data was analyzed by a GraphPad Prism program.

Compound | Relative Activation (% Control) [1] | Slope/Hrp [1] | IC50 ([2]; 24 h) | other results
COc1cc(/C=C\c2ccc(F)c(O)c2O)cc(OC)c1OC | 0.006 % Control | −6675900 | 0.546 µM | 
COc1cc(/C=C\c2ccc(O)c(O)c2O)cc(OC)c1OC |  |  | 0.069 µM | Blood Flow at 10 mg/kg (% vessel area of control) [3]: 26.7 % vessel area of control
COc1cc(/C=C\c2ccc([N+](=O)[O-])c(O)c2O)cc(OC)c1OC |  | −1902300 | 0.28 µM | 
C=CCOc1ccc(/C=C\c2cc(OC)c(OC)c(OC)c2)c(O)c1O |  | −16925 | 0.007 µM | Blood Flow at 10 mg/kg (% vessel area of control) [3]: 60 % vessel area of control
COc1ccc(/C=C\c2cc(OC)c(OC)c(OC)c2)cc1OP(=O)([O-])[O-].[Na+].[Na+] [CA4P, Combretastatin A-4 Disodium Phosphate Prodrug, reference compound] |  |  |  | effect on tumor growth [4]: no measurable effect on tumor growth; effect on vascular volume ([5]; doses below 50 mg/kg i.p.): no significant effect; dose required to produce an effect similar to that of 1 mg/kg of CA1P ([5]; functional vascular volume): 25 mg/kg; ED50 (vascular effect) ([3]; functional vessel number per mm^2, i.p., 24 hr, MHEC-5T tumors): 43 mg/kg; blood flow in the central region of tumors ([3]; spatial distribution of blood vessel shutdown): blood flow reduction
COc1ccc(/C=C\c2cc(OC)c(OC)c(OC)c2)cc1O [CA-4, Combretastatin A-4] |  |  |  | tubulin binding activity [6]: potent; solubility in human plasma [7]: insolubility
COc1cc(/C=C\c2cccc(OP(=O)([O-])[O-])c2OP(=O)([O-])[O-])cc(OC)c1OC.[Na+].[Na+].[Na+].[Na+] [ZSB-36, 2′,3′diphosphate-3,4,5-trimethoxy-(Z)-stilbene, tetrasodium salt] |  |  |  | IC50 [2]: 0.4 µM; Blood Flow at 10 mg/kg (% vessel area of control) [3]: 94 % vessel area of control
COc1cc(/C=C\c2cc(Br)cc(O)c2O)cc(OC)c1OC [ZSB-74, 4-Bromo-6-[(Z)-2-(3,4,5-trimethoxyphenyl)vinyl]-1,2-dihydroxybenzene] | 0.203 % Control | −182825 | 0.34 µM | IC50 [8]: 2.1 µM
COc1cc(/C=C\c2ccc(C)c(O)c2O)cc(OC)c1OC [ZSB-75, 3-Methyl-6-[(Z)-2-(3,4,5-trimethoxyphenyl)vinyl]-1,2-dihydroxybenzene] | 1.703 % Control | −21783 | 0.9 µM | 
CCc1ccc(/C=C\c2cc(OC)c(OC)c(OC)c2)c(O)c1O [ZSB-76, 3-Ethyl-6-[(Z)-2-(3,4,5-trimethoxyphenyl)vinyl]-1,2-dihydroxybenzene] | 6.743 % Control | −5502 | 0.542 µM | 
C=CCc1ccc(/C=C\c2cc(OC)c(OC)c(OC)c2)c(O)c1O [ZSB-77, 3-Allyl-6-[(Z)-2-(3,4,5-trimethoxyphenyl)vinyl]-1,2-dihydroxybenzene] | 1.875 % Control | −19783 | 0.748 µM | 
COc1cc(/C=C\c2cc(-c3ccccc3)cc(O)c2O)cc(OC)c1OC [ZSB-80, 4-Phenyl-6-[(Z)-2-(3,4,5-trimethoxyphenyl)vinyl]-1,2-dihydroxybenzene] | 0.017 % Control | −2158250 |  | IC50 [2]: 1.56 µM
CCOc1ccc(/C=C\c2cc(OC)c(OC)c(OC)c2)c(O)c1O [ZSB-81] |  |  |  | IC50 [2]: 0.094 µM
COc1cc(/C=C\c2cccc(O)c2O)cc(OC)c1OC [ZSB-82, 6-[(Z)-2-(3,4,5-Trimethoxyphenyl)vinyl]-1,2-dihydroxybenzene] | 0.029 % Control | −1269800 | 0.143 µM | IC50 [8]: 6.2 µM
